# Results as given in ChEMBL document CHEMBL3045556, “Effect of temperature on the toxicity of several insecticides to Apolygus lucorum (Heteroptera: Miridae)” (2012).
# Columns and labels:
# Type in all cases: functional
# Apolygus lucorum [1] = assay: Ratio of LC50 for third-instar Apolygus lucorum reared in asparagus bean pod at 15 degC to LC50 for third-instar Apolygus lucorum reared in asparagus bean pod at 30 degC
# Apolygus lucorum [2] = assay: Insecticidal activity against third-instar Apolygus lucorum reared in asparagus bean pod assessed as mortality administered by dipping pods in compound solution measured after 48 hr at 20 degC
# Apolygus lucorum [3] = assay: Insecticidal activity against third-instar Apolygus lucorum reared in asparagus bean pod assessed as mortality administered by dipping pods in compound solution measured after 48 hr at 35 degC
# Apolygus lucorum [4] = assay: Insecticidal activity against third-instar Apolygus lucorum reared in asparagus bean pod assessed as mortality administered by dipping pods in compound solution measured after 48 hr at 25 degC
# Apolygus lucorum [5] = assay: Ratio of LC50 for third-instar Apolygus lucorum reared in asparagus bean pod at 15 degC to LC50 for third-instar Apolygus lucorum reared in asparagus bean pod at 20 degC
# Apolygus lucorum [6] = assay: Insecticidal activity against third-instar Apolygus lucorum reared in asparagus bean pod assessed as mortality administered by dipping pods in compound solution measured after 48 hr at 30 degC
# Apolygus lucorum [7] = assay: Insecticidal activity against third-instar Apolygus lucorum reared in asparagus bean pod assessed as mortality administered by dipping pods in compound solution measured after 48 hr at 15 degC
# Apolygus lucorum [8] = assay: Ratio of LC50 for third-instar Apolygus lucorum reared in asparagus bean pod at 15 degC to LC50 for third-instar Apolygus lucorum reared in asparagus bean pod at 25 degC
# Apolygus lucorum [9] = assay: Ratio of LC50 for third-instar Apolygus lucorum reared in asparagus bean pod at 15 degC to LC50 for third-instar Apolygus lucorum reared in asparagus bean pod at 35 degC
# Apolygus lucorum [10] = assay: Ratio of LC50 for third-instar Apolygus lucorum reared in asparagus bean pod at 30 degC to LC50 for third-instar Apolygus lucorum reared in asparagus bean pod at 15 degC
# Apolygus lucorum [11] = assay: Ratio of LC50 for third-instar Apolygus lucorum reared in asparagus bean pod at 20 degC to LC50 for third-instar Apolygus lucorum reared in asparagus bean pod at 15 degC
# Apolygus lucorum [12] = assay: Ratio of LC50 for third-instar Apolygus lucorum reared in asparagus bean pod at 35 degC to LC50 for third-instar Apolygus lucorum reared in asparagus bean pod at 15 degC
# Apolygus lucorum [13] = assay: Ratio of LC50 for third-instar Apolygus lucorum reared in asparagus bean pod at 25 degC to LC50 for third-instar Apolygus lucorum reared in asparagus bean pod at 15 degC
Structure (SMILES),RatioLC50 (Apolygus lucorum [1]),LC50 (Apolygus lucorum [2]) [µg/mL],LC50 (Apolygus lucorum [3]) [µg/mL],LC50 (Apolygus lucorum [4]) [µg/mL],RatioLC50 (Apolygus lucorum [5]),LC50 (Apolygus lucorum [6]) [µg/mL],LC50 (Apolygus lucorum [7]) [µg/mL],RatioLC50 (Apolygus lucorum [8]),RatioLC50 (Apolygus lucorum [9]),RatioLC50 (Apolygus lucorum [10]),RatioLC50 (Apolygus lucorum [11]),RatioLC50 (Apolygus lucorum [12]),RatioLC50 (Apolygus lucorum [13])
C/C(=N\C#N)N(C)Cc1ccc(Cl)nc1 [ACETAMIPRID],6.11,972.05,181.95,420.95,1.66,264.02,1613.76,3.83,8.87,,,,
CC1(C)[C@H](C=C(Cl)Cl)[C@H]1C(=O)O[C@@H](C#N)c1cccc(Oc2ccccc2)c1 [BETA-CYPERMETHRIN],,14.86,20.78,11.83,,28.44,0.4,,,70.27,36.72,51.35,29.23
CCCCN(CCCC)SN(C)C(=O)Oc1cccc2c1OC(C)(C)C2 [CARBOSULFAN],1.12,116.07,156.75,199.4,2.36,246.4,274.15,1.37,1.75,,,,
N#Cc1nn(-c2c(Cl)cc(C(F)(F)F)cc2Cl)c(N)c1[S+]([O-])C(F)(F)F (configuration not stated) [FIPRONIL],1.03,1.69,0.1,0.72,,0.33,0.34,,3.4,,5.76,,2.12
CC1(C)C(/C=C(\Cl)C(F)(F)F)C1C(=O)O[C@@H](C#N)c1cccc(Oc2ccccc2)c1 (some centres not stated) [GAMA-CYHALOTHRIN],,25.6,95.03,27.96,,72.22,25.28,,,2.86,1.01,3.76,1.11
O=[N+]([O-])/N=C1\NCCN1Cc1ccc(Cl)nc1 [IMIDACLOPRID],13.94,1507.97,148.05,1025.9,2.2,238.47,3324.02,3.24,22.45,,,,
CNC(=O)ON=C(C)SC [METHOMYL],,564.28,731.98,895.41,,1108.75,482.96,,,2.3,1.17,1.52,1.85
CCOP(=S)(OCC)O/N=C(\C#N)c1ccccc1 [PHOXIM],1.01,156.17,173.53,237.93,1.27,196.5,198.24,,1.14,,,,1.2
